The text below walks through data of patent US20250084039A1, “4-SUBSTITUTED AMINOISOQUINOLINE DERIVATIVES” (Purdue Research Foundation, priority 2016, published 2025).

Where two headings read alike, the source gives them in different places.

The test system of one assay is K562. The assay is described as follows: IC50 proliferation assay (Alamar Blue, 72 h). Type of assay: cell-based. The protocol:
(§1) IC50 proliferation assay—Cell lines and primary cells were seeded into 96-well plates the afternoon prior to treatment. Approximately 18 hours later, compounds were semi-serially diluted in dimethyl sulfoxide (DMSO) and then growth medium, and added to cells. Plates were incubated for 72 hours prior to addition of Alamar Blue (Life Technologies, Carlsbad, CA). Plates were read after 4 additional hours of incubation at 37° C. using a Bio-Tek Synergy HT plate reader (Bio-Tek, Winooski, VT). Data was analyzed and graphed using GraphPad Prism Software (Graphpad, La Jolla. CA).
(§2) IC50 (proliferation inhibition) against leukemia cell lines MV4-11 and K562. […] MiaPaca-2 (Pancreatic cell line), HLY-1 (Lymphoma cell line), MV4-11 (AML, cell line) and K562 (CML cell line).

The test system of assay [1] is MV4-11. The assay is described as follows: IC50 proliferation assay (Alamar Blue, 72 h). Type of assay: cell-based. Particulars: read-out: IC50 (proliferation inhibition) Cell line - MV4-11. The protocol:
as §1, §2
A general note: Alamar Blue is a resazurin reagent that responds to reducing activity.

The subject of assay [2] is MOLM14. The assay is described as follows: IC50 determination (proliferation assay, CellTiter-Blue). Type of assay: cell-based. As for the experimental part:
(§3) Cell lines were seeded into 96-well plates the afternoon prior to treatment. Approximately 18 hours later, compounds were diluted in dimethyl sulfoxide (DMSO) and added to cells. Plates were incubated for 72 hours and cells viability determined with CellTiter-Blue Cell Viability Assay (Promega, Madison, WI). Plates were read after 4 additional hours of incubation at 37° C. using plate reader (Bio-Tek, Winooski. VT). Data was analyzed and graphed using GraphPad Prism Software (Graphpad. La Jolla, CA). […]

Assay [3] has as its system MV4-11. The assay is described as above. The format is cell-based. The protocol:
as §3

Another assay relates to MV-4-11. The assay is described as follows: Proliferation inhibition at single concentration (CellTiter-Blue). Type of assay: cell-based. Particulars: 1 μM compound.
Another assay concerns HeLa. Described as above. Type of assay: cell-based. To be noted: 1 μM compound. As for the experimental part:
(§4) Plates were then treated with compound diluted in dimethyl sulfoxide (DMSO) as well as a DMSO control the following day for 72 hours. After this time the plates were then treated with 10 μL of CellTiter-Blue Cell Viability Assay (Promega, Madison, WI) for 4 hours. Then the plates were read on a plate reader (Bio-Tek, Winooski, VT). Data was analyzed on Excel as a percent of the DMSO vehicle.
(§5) Antiproliferative activities against AML cell line, MV4-11 (a FLT3-driven cell line) and three other solid tumors (MCF7, breast, HCT116, colon and HeLa) have been investigated (Tables 6A and 6B and FIG. 10).

In a further assay the test system is MCF-7. The assay is described as above. Type of assay: cell-based. To be noted: 1 μM compound. As for the experimental part:
as §4, §5

The subject of a further assay is HCT116. The assay is described as above. The format is cell-based. To be noted: 1 μM compound.
A further assay concerns the target FLT3 (Homo sapiens (Human), UniProt P36888). The assay is described as follows: Reaction Biology HotSpot kinase assay. The format is biochemical. Particulars: 500 nM compound; for inhibition at 0.5 µM: read-out: % inhibition of FLT3 activity. As for the experimental part:
(§6) The Reaction Biology Corporation (www.reactionbiology.com, Malvern, PA) HotSpot assay platform was used to measure kinase/inhibitor interactions exactly as previously described. Kinase and substrate were mixed in a buffer containing 20 mM HEPES pH 7.5, 10 mM MgCl2, 1 mM EGTA, 0.02% Brij35, 0.02 mg/mL BSA, 0.1 mM Na3VO4, 2 mM DTT and 1% DMSO. Single-dose of compounds (500 nM) were then added to each reaction mixture. After 20-minute incubation. ATP (Sigma) and [γ-^33P] ATP (Perkin Elmer) were added at a final total concentration of 100 μM for addition 2 hours at room temperature, followed by spotting onto P81 ion exchange cellulose chromatography paper (Whatman, Inc.). […] Percent remaining kinase activity of a vehicle (DMSO) containing kinase reaction was calculated for each kinase/inhibitor pair using Prism 5 (GraphPad).
as §6, with “1” for “DTT”, “incubation,” for “incubation.”

Assay [4] concerns MV4-11. Put plainly: Anti-proliferative effects in leukemia panel. Type of assay: cell-based. Particulars: for IC50: Homo sapiens, MV4-11. As for the experimental part: Molm-14 cells were the kind gift of Dr. Mark Levis from Johns Hopkins University. […] Cell lines were grown and maintained according to ATCC recommendations.
(§7) Cell lines were seeded into 96-well plates the afternoon prior to treatment. Approximately 18 hours later, compounds were semi-serially diluted in dimethyl sulfoxide (DMSO) and then growth medium, and added to cells. Plates were incubated for 72 hours prior to addition of Alamar Blue (Life Technologies. Carlsbad, CA). Plates were read after 4 additional hours of incubation at 37° C. using a Bio-Tek Synergy HT plate reader (Bio-Tek, Winooski. VT). Data was analyzed and graphed using GraphPad Prism Software (Graphpad. La Jolla, CA).

In assay [5] the test system is MV4-11. Put plainly: Activity against AML cell line MV4-11 (CellTiter-Blue, 72 h). Type of assay: cell-based. Particulars: Homo sapiens, MV4-11, 72 h; read-out: IC50 against MV4-11/uM. The protocol:
Cells were added to 96 well plates at 2000 cells per well for adherent lines and 4000 cells per well for suspension lines and kept in an incubator overnight. The following day the plates were treated with compounds to give rise to the final concentrations of; 100 μM, 10 μM, 5 μM 1 μM, 500 nM, 100 nM, 10 nM, […]. The plates were then stored in the incubator for 72 hours. On the third day the cells were assayed with 20 μL of CellTiter—Blue Cell Viability Assay per well and were incubated for 4 hours. After 4 hours' fluorescence intensity was taken on a plate reader: Excitation: 560/10 Emission: 590/10. IC50 analysis was performed on GraphPad Prism 7.

Assay [6] concerns MOLM14. The assay is described as follows: Anti-proliferative effects in leukemia panel. Type of assay: cell-based. Particulars: for IC50: Homo sapiens, MOLM-14. As for the experimental part: Molm-14 cells were the kind gift of Dr. Mark Levis from Johns Hopkins University. THP-1, MV4-11, K-562 and MRC-5A cells were purchased from ATCC (ATCC, Manassas, VA). All cell lines were grown in 37° C. with 5% CO2 atmosphere with RPMI 1640 (Life technologies, Carlsbad. CA) supplemented with heat-inactivated 10% (V/V) fetal bovine serum. Cell lines were grown and maintained according to ATCC recommendations.
as §7

The next assay concerns the target TRKC (Homo sapiens (Human), UniProt Q16288). Put plainly: Reaction Biology HotSpot kinase assay. Type of assay: biochemical. To be noted: 500 nM compound, 100 μM radiolabeled ATP. The protocol:
as §6
as §6, with “1” for “DTT”, “incubation,” for “incubation.”

A further assay concerns the target c-kit (Homo sapiens (Human), UniProt P10721). The assay is described as follows: Reaction Biology HotSpot kinase assay. The format is biochemical. To be noted: 500 nM compound, 100 μM radiolabeled ATP. As for the experimental part:
as §6
as §6, with “1” for “DTT”, “incubation,” for “incubation.”

The target of another assay is FGFR1 (Homo sapiens (Human), UniProt P11362). The assay is described as follows: Reaction Biology HotSpot kinase assay. The format is biochemical. To be noted: 500 nM compound; read-out: Percentage kinase inhibition FGFR1. As for the experimental part:
as §6
as §6, with “1” for “DTT”, “incubation,” for “incubation.”

The next assay concerns the target c-Src (Homo sapiens (Human), UniProt P12931). Put plainly: Reaction Biology HotSpot kinase assay. Type of assay: biochemical. To be noted: 500 nM compound; read-out: Percentage kinase inhibition c-Src. As for the experimental part: as §6
as §6, with “1” for “DTT”, “incubation,” for “incubation.”

[7] abbreviates: Homo sapiens, K562, 72 h, read-out: IC50 (proliferation inhibition) Cell line - K562.
Where [8] appears, read: Homo sapiens, K562, Table 18, read-out: Inhibition of proliferation of K562 cell lines (CML).
Setting [9] is: read-out: Anti-proliferative effects in leukemia panel (μM) MV4-11.

What is called inhibition is how much of the control response was suppressed.

Chain of FLT3 (P36888 27-993): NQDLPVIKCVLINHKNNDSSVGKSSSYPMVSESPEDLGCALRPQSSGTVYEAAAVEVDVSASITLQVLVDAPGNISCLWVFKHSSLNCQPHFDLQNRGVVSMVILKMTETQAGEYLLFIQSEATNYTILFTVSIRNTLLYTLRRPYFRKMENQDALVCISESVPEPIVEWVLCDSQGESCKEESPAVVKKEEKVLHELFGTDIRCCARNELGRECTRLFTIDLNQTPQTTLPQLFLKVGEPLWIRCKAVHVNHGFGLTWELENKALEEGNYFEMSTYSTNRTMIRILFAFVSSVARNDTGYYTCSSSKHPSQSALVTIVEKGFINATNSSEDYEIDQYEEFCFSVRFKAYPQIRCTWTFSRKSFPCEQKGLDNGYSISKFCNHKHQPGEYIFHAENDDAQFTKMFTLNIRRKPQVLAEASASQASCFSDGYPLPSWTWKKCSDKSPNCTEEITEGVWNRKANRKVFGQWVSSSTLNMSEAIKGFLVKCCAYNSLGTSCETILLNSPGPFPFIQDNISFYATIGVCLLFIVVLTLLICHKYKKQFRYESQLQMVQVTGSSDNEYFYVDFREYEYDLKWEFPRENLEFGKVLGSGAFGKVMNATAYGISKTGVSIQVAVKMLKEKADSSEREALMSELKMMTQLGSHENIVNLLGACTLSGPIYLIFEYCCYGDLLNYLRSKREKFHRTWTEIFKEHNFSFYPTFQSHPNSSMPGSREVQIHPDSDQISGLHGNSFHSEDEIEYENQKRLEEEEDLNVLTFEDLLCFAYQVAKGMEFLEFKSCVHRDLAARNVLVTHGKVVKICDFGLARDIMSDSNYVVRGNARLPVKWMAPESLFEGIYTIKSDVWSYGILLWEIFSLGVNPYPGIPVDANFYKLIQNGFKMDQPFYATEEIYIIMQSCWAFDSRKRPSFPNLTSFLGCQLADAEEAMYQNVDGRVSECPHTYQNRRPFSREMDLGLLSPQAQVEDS
Chain of c-kit (P10721 26-976): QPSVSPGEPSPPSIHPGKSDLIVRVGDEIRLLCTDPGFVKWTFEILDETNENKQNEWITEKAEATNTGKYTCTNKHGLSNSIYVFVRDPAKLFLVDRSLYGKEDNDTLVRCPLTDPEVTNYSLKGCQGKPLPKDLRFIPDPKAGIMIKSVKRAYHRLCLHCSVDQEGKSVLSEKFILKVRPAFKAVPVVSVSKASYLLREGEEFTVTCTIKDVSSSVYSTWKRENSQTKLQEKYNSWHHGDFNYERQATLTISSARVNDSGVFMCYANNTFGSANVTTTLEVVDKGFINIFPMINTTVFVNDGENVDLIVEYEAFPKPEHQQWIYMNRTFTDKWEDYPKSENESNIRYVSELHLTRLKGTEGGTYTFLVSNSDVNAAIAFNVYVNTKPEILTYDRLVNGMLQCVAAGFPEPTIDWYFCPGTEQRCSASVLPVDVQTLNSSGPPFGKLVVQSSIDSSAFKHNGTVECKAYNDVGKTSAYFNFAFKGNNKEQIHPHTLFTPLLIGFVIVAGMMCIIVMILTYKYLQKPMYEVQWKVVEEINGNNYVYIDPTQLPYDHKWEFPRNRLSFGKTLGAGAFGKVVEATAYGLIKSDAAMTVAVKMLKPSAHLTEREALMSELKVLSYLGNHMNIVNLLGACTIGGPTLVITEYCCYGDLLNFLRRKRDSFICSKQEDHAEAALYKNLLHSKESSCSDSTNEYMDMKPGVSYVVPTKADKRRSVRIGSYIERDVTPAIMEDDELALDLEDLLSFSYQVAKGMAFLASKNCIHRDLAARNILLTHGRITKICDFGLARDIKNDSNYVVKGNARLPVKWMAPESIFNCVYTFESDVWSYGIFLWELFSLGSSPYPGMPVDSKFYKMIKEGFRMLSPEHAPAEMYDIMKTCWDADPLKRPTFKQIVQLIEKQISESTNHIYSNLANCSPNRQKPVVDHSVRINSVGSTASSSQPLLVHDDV
Chain of TRKC (Q16288 32-839): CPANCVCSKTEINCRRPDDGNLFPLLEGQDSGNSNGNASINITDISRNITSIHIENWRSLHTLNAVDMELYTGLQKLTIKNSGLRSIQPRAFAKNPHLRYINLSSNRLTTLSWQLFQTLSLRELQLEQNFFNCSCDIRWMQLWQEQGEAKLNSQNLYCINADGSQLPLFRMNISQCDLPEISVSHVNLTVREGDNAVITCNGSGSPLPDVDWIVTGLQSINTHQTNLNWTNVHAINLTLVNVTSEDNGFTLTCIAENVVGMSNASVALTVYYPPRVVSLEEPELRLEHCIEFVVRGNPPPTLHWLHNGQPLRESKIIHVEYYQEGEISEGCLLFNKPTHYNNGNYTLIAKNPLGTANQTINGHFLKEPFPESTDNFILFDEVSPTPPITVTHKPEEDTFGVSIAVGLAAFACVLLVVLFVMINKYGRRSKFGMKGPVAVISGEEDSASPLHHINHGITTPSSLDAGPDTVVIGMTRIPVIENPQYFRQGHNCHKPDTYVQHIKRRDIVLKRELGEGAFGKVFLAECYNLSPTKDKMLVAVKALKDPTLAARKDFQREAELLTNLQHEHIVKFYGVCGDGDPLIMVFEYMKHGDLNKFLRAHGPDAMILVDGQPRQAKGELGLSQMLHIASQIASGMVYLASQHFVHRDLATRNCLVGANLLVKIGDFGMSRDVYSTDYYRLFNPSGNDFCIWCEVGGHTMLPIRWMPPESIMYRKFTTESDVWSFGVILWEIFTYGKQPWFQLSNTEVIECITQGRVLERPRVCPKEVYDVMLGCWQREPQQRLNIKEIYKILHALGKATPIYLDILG
Chain of FGFR1 (P11362 22-822): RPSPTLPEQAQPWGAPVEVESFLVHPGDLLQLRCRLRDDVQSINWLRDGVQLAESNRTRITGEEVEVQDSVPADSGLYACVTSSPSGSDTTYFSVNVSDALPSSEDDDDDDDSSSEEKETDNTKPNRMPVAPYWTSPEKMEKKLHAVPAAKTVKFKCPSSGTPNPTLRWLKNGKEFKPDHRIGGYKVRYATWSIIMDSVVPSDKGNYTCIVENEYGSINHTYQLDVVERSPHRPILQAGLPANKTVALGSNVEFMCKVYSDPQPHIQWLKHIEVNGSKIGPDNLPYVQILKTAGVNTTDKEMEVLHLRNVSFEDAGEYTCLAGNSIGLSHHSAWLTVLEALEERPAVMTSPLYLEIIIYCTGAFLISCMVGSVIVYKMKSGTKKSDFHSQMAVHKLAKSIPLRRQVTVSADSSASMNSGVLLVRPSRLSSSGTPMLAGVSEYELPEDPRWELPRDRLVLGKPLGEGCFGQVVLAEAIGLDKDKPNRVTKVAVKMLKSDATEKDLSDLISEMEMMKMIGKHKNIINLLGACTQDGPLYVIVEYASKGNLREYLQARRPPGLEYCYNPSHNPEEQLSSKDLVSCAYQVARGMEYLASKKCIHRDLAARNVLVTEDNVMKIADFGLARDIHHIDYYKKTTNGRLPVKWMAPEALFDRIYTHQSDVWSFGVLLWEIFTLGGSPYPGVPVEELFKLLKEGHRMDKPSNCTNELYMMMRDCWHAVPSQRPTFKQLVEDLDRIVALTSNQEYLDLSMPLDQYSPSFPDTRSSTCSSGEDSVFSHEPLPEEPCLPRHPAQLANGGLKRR
Chain of c-Src (P12931 whole entry, looked up): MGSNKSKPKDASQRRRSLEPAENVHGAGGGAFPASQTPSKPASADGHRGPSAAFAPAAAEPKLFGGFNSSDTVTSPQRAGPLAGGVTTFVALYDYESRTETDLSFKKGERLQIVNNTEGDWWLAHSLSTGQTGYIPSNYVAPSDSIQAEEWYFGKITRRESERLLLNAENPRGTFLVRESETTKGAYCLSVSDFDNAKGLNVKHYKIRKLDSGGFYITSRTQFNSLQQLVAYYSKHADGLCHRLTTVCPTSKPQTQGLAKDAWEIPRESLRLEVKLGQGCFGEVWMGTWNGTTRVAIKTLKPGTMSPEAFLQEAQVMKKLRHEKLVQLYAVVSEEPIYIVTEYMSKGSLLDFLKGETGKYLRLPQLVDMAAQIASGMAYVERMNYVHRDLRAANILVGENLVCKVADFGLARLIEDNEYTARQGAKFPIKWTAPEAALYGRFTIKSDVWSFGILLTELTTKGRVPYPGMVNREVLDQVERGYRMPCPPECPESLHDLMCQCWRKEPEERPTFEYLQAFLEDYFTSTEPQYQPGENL

For `Cc1ccc(C(=O)NCc2ccc(OCCN(C)C)cc2)cc1C#Cc1c(N)ncc2ccc(Cl)cc12` [HSN315], the IC50 worked out at 203 nM in the assay on K562 (72 h, read-out: IC50 (proliferation inhibition) Cell line - K562); 203 ± 0.1 nM in the assay with K562 (Table 18, read-out: Inhibition of proliferation of K562 cell lines (CML)); 540 nM in the assay with MV4-11 [1] (72 h); 523 ± 6.4 nM in the assay with MOLM14 [2]; 549 ± 7.4 nM with MV4-11 [3]. Besides, the “proliferation inhibition in words, MV4-11 / AML” value with MV4-11 [3] was “only moderate inhibitors”. For the same compound, the “Percent inhibition of proliferation MV-4-11” value in the assay with MV-4-11 stood at 83%. In addition, in the assay with HeLa, the “Percent inhibition of proliferation HeLa” value is listed as 100%. Besides, the “Percent inhibition of proliferation MCF-7” value in the assay on MCF-7 is 100%. For the same compound, in the assay with HCT116, the “Percent inhibition of proliferation HCT116” value amounted to 66%. For the same compound, the “% inhibition of FLT3 activity” value at FLT3 is 32%.

In the case of `Cc1ccc(C(=O)NCc2ccc(OCCN(C)C)cc2)cc1C#Cc1cc(N)nc2ccccc12` [HSN316, 3-((2-aminoquinolin-4-yl)ethynyl)-N-(4-(2-(dimethylamino)ethoxy)benzyl)-4-methylbenzamide], the IC50 is 759 nM with K562 (setting [7]); 913 ± 0.1 nM with K562 (setting [8]); 759 nM with MV4-11 [1] (Homo sapiens, MV4-11, 72 h).

As for `N#Cc1ccc(C#Cc2c(N)ncc3ccc(Cl)cc23)cc1` [HSM1611, 4-((3-amino-6-chloroisoquinolin-4-yl)ethynyl)benzonitrile], in the assay on MV4-11 [4], the “anti-proliferative activity in words, MV4-11 / AML cell lines” value is “ineffective”. For the same compound, the figures for the IC50 in the assay on MV4-11 [4] (setting [9]), in the assay on MV4-11 [5] and in the assay with MOLM14 [6] were greater than 5 µM, 0.84 µM and greater than 5 µM, respectively. Besides, the “anti-proliferative activity in words, MOLM-14” value in the assay on MOLM14 [6] is recorded as “ineffective”. The inhibition at 0.5 µM against TRKC worked out at 16%; on c-kit it was 63%.

As to `Cc1ccc(C(=O)Nc2ccc(CN3CCN(C)CC3)c(C(F)(F)F)c2)cc1C#Cc1c(N)ncc2c(Cl)cccc12` [HSN353, 3-((3-amino-8-chloroisoquinolin-4-yl)ethynyl)-4-methyl-N-(4-((4-methylpiperazin-1-yl)methyl)-3-(trifluoromethyl)phenyl)benzamide], the IC50 with K562 (setting [7]) was found to be 5 nM; with K562 (setting [8]), 5.2 ± 0.02 nM; with MV4-11 [1] (Homo sapiens, MV4-11, 72 h) it was 3 nM; in the assay on MOLM14 [2] (Homo sapiens, MOLM-14) it was 1.97 ± 0.1 nM; in the assay on MV4-11 [3] (Homo sapiens, MV4-11) it was 3.45 ± 0.04 nM. In addition, the inhibition at 0.5 µM on FGFR1 amounted to 93%; on FLT3, 94%; at c-Src it was 98%; against c-kit it was 82%.

With `Nc1nnc2ccccc2c1C#Cc1ccc(C2=NCCN2)cc1` [HSM1796], the “anti-proliferative activity in words, MV4-11 / AML cell lines” value in the assay with MV4-11 [4] was “ineffective”. The IC50 in the assay with MV4-11 [4] (setting [9]) and in the assay on MOLM14 [6] was greater than 5 µM in each case. The inhibition at 0.5 µM at TRKC worked out at 7%; against c-kit it was 3%.

`Nc1ncc2ccc(Cl)cc2c1C#Cc1ccc(C2=NCCN2CCN2CCCCC2)cc1` [HSM1721]: the IC50 is 0.08 ± 0.02 µM with MV4-11 [4] (setting [9]), 0.015 µM in the assay on MV4-11 [5] and 0.3 µM in the assay with MOLM14 [6]. The inhibition at 0.5 µM amounted to 52% at TRKC and 80% against c-kit.

For the compound `Cc1ccc(C(=O)Nc2ccc(CN3CCN(C)CC3)c(C(F)(F)F)c2)cc1C#Cc1c(N)ncc2ccccc12` [HSN352, 3-((3-aminoisoquinolin-4-yl)ethynyl)-4-methyl-N-(4-((4-methylpiperazin-1-yl)methyl)-3-(trifluoromethyl)phenyl)benzamide], the IC50 came out at 2 nM in the assay with K562 (setting [7]); 2.4 ± 0.06 nM with K562 (setting [8]); 3 nM in the assay with MV4-11 [1] (Homo sapiens, MV4-11, 72 h); 3.01 ± 0.1 nM in the assay with MOLM14 [2] (Homo sapiens, MOLM-14); 3.09 ± 0.1 nM with MV4-11 [3] (Homo sapiens, MV4-11). For the same compound, the inhibition at 0.5 µM at FGFR1 was 100%; at FLT3 it was 93%; on c-Src, 100%; against c-kit, 78%.

Consider `Nc1ncc(C#Cc2ccc(C3=NCCN3)cc2)c2ccccc12` [HSM1795, 4-((4-(4,5-dihydro-1H-imidazol-2-yl)phenyl)ethynyl)isoquinolin-1-amine], for which, in the assay on MV4-11 [1] (Homo sapiens, MV4-11, 72 h), the IC50 was 100 nM.

For the compound `CC1(COc2ccc3c(c2)ncn3-c2ccc3cccc(N4CCC(N)CC4)c3n2)COC1` [Crenolanib, reference compound], the IC50 in the assay on MV4-11 [4] (setting [9]) is 0.005 ± 0.001 µM; in the assay with MV4-11 [4] (read-out: anti-proliferative IC50), 0.005 µM; in the assay with MOLM14 [6] it was 0.004 µM. For the same compound, the inhibition at 0.5 µM on FLT3 is 99%.

For `C(#Cc1cncc2ccccc12)c1ccc(C2=NCCN2)cc1` [HSM1813], in the assay with MV4-11 [4], the “anti-proliferative activity in words, MV4-11 / AML cell lines” value is listed as “not a potent inhibitor”. The IC50 in the assay on MV4-11 [4] (setting [9]) and in the assay on MOLM14 [6] was greater than 5 µM throughout. Besides, the figures for the inhibition at 0.5 µM against TRKC and at c-kit were 17% and 39%, respectively.
